Reference: US9358272B2, “Multicomponent compositions and their uses” (THE ADMINISTRATORS OF THE TULANE EDUCATIONAL FUND, priority 2011, dated 2016)
Where a SMILES comes first, the peptide text is derived from it. [ ]: non-standard residue; d: D form. The star is where a group is joined. Nle = CCCC[C@H](N)C(=O)O; Cbz = O=C(OCc1ccccc1)*

What was measured:
[1] = test system: ovarian cancer OVCAR8 cells; experiment: Cell proliferation assay (MTT), OVCAR8 cells; type: cell-based, Human; conditions: single agents and combinations
Protocol: (§1) Cell Proliferation Assay (MTT)
(§2) The cell proliferation assay was performed as described previously in Sun et al., Bioorg Med Chem Lett, 2004, Vol. 14, pp. 2041-2046. Briefly, 50 μl aliquots of medium with different concentrations of compounds were added to 96-well plates. All compound concentrations were tested in triplicate. Another 50 μl of the cell stock (1×10^5 cells/ml of media) was dispensed into each test well and the plates were incubated at 37° C. in a CO2 incubator for 3 days. Following the incubation period, 15 μl of the dye solution was added to each well and the plates were then incubated at 37° C. for 4 hours, followed by the addition of 100 μl per well of the solubilization solution. The plates were incubated at 37° C. until the contents in each well became a uniform-colored solution. The absorbance was measured and recorded at 570 nm by a Victor Plate Reader.
(§3) The cell proliferation assay (Promega, Madison, Wis.) was performed as described in Sun et al., Bioorg Med Chem Lett, 2004, Vol. 14, pp. 2041-2046. The absorbance was measured and recorded at 570 nm by a Victor Plate Reader (PerkinElmer, Boston, Mass.).

[2] = test system: colonrectal cancer HT-29 cells; experiment: Cell proliferation assay (MTT), HT-29 cells; type: cell-based, Human; conditions: single agents and combinations
Protocol: as §1, §2, §3

[3] = test system: pancreatic cancer CFPAC-1 cells; experiment: Cell proliferation assay (MTT), CFPAC-1 cells; type: cell-based, Human; conditions: single agents and combinations
Protocol: as §1, §2, §3

[4] = test system: cervical cancer Hela cells; experiment: Cell proliferation assay (MTT), cervical cancer Hela cells; type: cell-based, Human; conditions: single agents and combinations, VPA 2.5 mM in FIGS. 19, 22
[5] = test system: small cell lung cancer DMS-53 cells; experiment: Cell proliferation assay (MTT), DMS-53 cells; type: cell-based; conditions: single agents and combinations, 2.5 mM VPA or 10 uM SBHA in FIGS. 21, 24
[6] = test system: pancreatic carcinoid BON cells; experiment: Cell proliferation assay (MTT), BON cells; type: cell-based, Human; conditions: single agents and combinations, 2.5 mM VPA or 10 uM SBHA in FIGS. 20, 23
Hela-ICN1 cells = experiment: Cell proliferation assay (MTT), Notch1-activated Hela-ICN1 cells; type: cell-based, Human
Protocol: as §1
(§4) The cell proliferation assay (Promega, Madison, Wis.) was performed as described previously in Sun et al., Bioorg Med Chem Lett, 2004, Vol. 14, pp. 2041-2046. Briefly, fifty μl of medium with or without tested compounds was added to 96-well plates. Another 50 μl of tested cancer cells (1×10^5 cells/ml) suspended in culture medium was dispensed into each well. The plates were incubated at 37° C. for 3 days. Afterward, plates were added with a 15 μl dye solution per well and incubated at 37° C. for 4 hours. To each well was then added 100 μl of the solubilization solution and the plates were incubated at 37° C. again until the contents in each well became a uniformly colored solution. The plates were measured at 570 nm by a Victor Reader (PerkinElmer).

Hela-GFP cells = experiment: Cell proliferation assay (MTT), Hela-GFP cells; type: cell-based, Human
Protocol: as §1, §4

[7] = test system: cAMP production in Hela-GFP cells; experiment: Fluorescence polarization (FP) cAMP assay, Hela-GFP cells; type: cell-based, Human; conditions: control Hela (Hela-GFP) cells
Protocol: (§5) Fluorescence Polarization (FP) cAMP Assay The FP cAMP assay (FPA202) was performed according to the manufacturer's protocol (PerkinElmer, Boston, Mass. 02118-2512). Briefly, ten μl of forskolin at different concentrations were added to each well, then to each well ten μl of cell suspended in Stimulation Mix (made fresh before use by mixing anti-cAMP antibody in stimulation buffer) was added. Plates were incubated 30 minutes at 37° C. Twenty μl of Detection Mix (Fluo-cAMP stock diluted in Detection Buffer) was added and continued incubation 30 minutes at 37° C. Meanwhile, the standard curve, and controls were done. The cAMP was measured by Victor Reader (PerkinElmer).

[8] = test system: cAMP production in Hela-ICN1 cells; experiment: Fluorescence polarization (FP) cAMP assay, Hela-ICN1 cells; type: cell-based, Human; conditions: for cAMP production: Hela cells with activated Notch1 signaling (Hela-ICN1)
Protocol: as §5

For `CCCC[C@@H](C=O)NC(=O)[C@H](CC(C)C)NC(=O)[C@H](CC(C)C)NC(=O)OCc1ccccc1` [NLE, Z-Leu-Leu-Nle-CHO] (Cbz-Leu-Leu-[Nle]-aldehyde), the “cell growth suppression (MTT), in words” value [1] was “induced cell growth arrest”, the “cell growth suppression (MTT), in words” value [2] was “induced cell growth arrest” and the “cell growth suppression (MTT), in words” value [3] was “induced cell growth arrest”.

`O=C(CCCCCCC(=O)NO)NO` [SBHA, suberoyl bis-hydroxamic acid] was tested, and the “cell growth suppression (MTT), in words” value [4] was “suppressed”, the “cell growth suppression (MTT), in words” value [5] was “induced growth suppression” and the “cell growth suppression (MTT), in words” value [6] was “induced growth suppression”.

For `C[C@H](N)C(=O)NCC(=O)N[C@H]1CSSC[C@@H](C(=O)O)NC(=O)[C@H](CO)NC(=O)[C@H]([C@@H](C)O)NC(=O)[C@H](Cc2ccccc2)NC(=O)[C@H]([C@@H](C)O)NC(=O)[C@H](CCCCN)NC(=O)[C@H](Cc2c[nH]c3ccccc23)NC(=O)[C@H](Cc2ccccc2)NC(=O)[C@H](Cc2ccccc2)NC(=O)[C@H](CC(N)=O)NC(=O)[C@H](CCCCN)NC1=O` [SST-14, Ala-Gly-Cys-Lys-Asn-Phe-Phe-Trp-Lys-Thr-Phe-Thr-Ser-Cys], the “inhibition of cell growth (MTT)” value (Hela-ICN1 cells; compound at 1 μM) was 2%, the “inhibition of cell growth (MTT)” value (Hela-ICN1 cells; compound at 10 μM) was 8% and the “inhibitory rate of cell proliferation (MTT)” value (shortened to “inhibitory rate”) (Hela-GFP cells; compound at 1 μM) was “almost no effect”. The “inhibitory rate” value (Hela-GFP cells; compound at 10 μM) was 28% and the “inhibitory rate” value (Hela-GFP cells; compound at 20 μM) was “about 40%”.

For `C=C[C@@]1(C)CC(=O)[C@]2(O)[C@@]3(C)[C@@H](O)CCC(C)(C)[C@@H]3[C@H](O)[C@H](OC(C)=O)[C@@]2(C)O1` [forskolin], the cAMP production ([7]; forskolin at 1 μM) was 0.005 pMol cAMP per 10^3 cells, the cAMP production ([7]; forskolin at 10 μM) was 0.018 pMol cAMP per 10^3 cells and the cAMP production ([7]; forskolin at 50 μM) was 0.024 pMol cAMP per 10^3 cells. It also gave a cAMP production ([8]; forskolin at 1 μM) of 0.05 pMol cAMP per 10^3 cells, a cAMP production ([8]; forskolin at 10 μM) of 0.25 pMol cAMP per 10^3 cells and a cAMP production ([8]; forskolin at 50 μM) of 0.46 pMol cAMP per 10^3 cells. The “cAMP concentration in Hela-ICN1 cells relative to Hela-GFP cells” value ([8]; forskolin at 1 μM) was 10 fold, the “cAMP concentration in Hela-ICN1 cells relative to Hela-GFP cells” value ([8]; forskolin at 10 μM) was 14 fold and the “cAMP concentration in Hela-ICN1 cells relative to Hela-GFP cells” value ([8]; forskolin at 50 μM) was 19 fold.
